Test system: human vascular smooth muscle cells
Assay: DNA synthesis inhibition activity of PGE1 derivatives to human vascular smooth muscle cells (3H-thymidine intake)
Format: cell-based
Conditions: for Growth inhibition rate (percent to control): concentration of the added compound 1×10^−5 M, ethanol solution, 3H-thymidine intake after culturing 24 hours, compared with vehicle-treated control; for growth inhibition activity against human vascular smooth muscle cells: summary in words of Table 1, 1×10^−5 M
Description: Determination of DNA synthesis inhibition activity of PGE1 derivatives to human vascular smooth muscle cells
On a plate with 24 wells (manufactured by Corning Co.), 1×10^4 cells/well of quintic culture cells of vascular cells derived from normal human aorta (manufactured by Kurabo Co.) were inoculated and cultured for 2 days. The medium was exchanged from the growth medium (SG2: manufactured by Kurabo Co.) to the basal medium (SB2: manufactured by Kurabo Co.), and cultured for 24 hours, to which was added the growth medium (SG2) containing an ethanol solution of the test compound. 0.01 mci/well of ^3H-thymidine (manufactured by Daiichi Chemicals Co.) was added and, after culturing for 24 hours, the cultured supernatant was removed by suction, followed by washing with a phosphate buffer solution (PBS).
5% Trichloroacetic acid (TCA) was added and, after allowing to stand at 4° C. for 20 minutes, the mixture was washed once with TCA. The mixture was washed with PBS, and dissolved in 0.5 M aqueous potassium hydroxide solution. Intake of ^3H-thymidine was determined using 20 μl of the aqueous potassium hydroxide solution dissolving the cells which incorporated ^3H-thymidine in the nucleus by means of a liquid scintillation counter (manufactured by Hewlett-Packard Co.).
Note: Compounds 7, 70 and 92 in the table are those which were prepared in Examples. The test compounds were each used as an ethanol solution (the concentration of the added compound: 1×10^−5 M), and compared with control (vehicle-treated group).

Structure (SMILES)	Growth inhibition rate (percent to control) [%]	growth inhibition activity against human vascular smooth muscle cells
CCCC[C@@H](C)CC(O)C#CC1C(CCCCOCC(=O)OC)C(=O)C[C@H]1SCCO (stereo partly drawn) [Compound 70, (11R,17R)-3-oxa-11-deoxy-11-(2-hydroxyethylthio)-17,20-dimethyl-13,14-didehydro-PGE1 Methyl Ester]	95.6	high growth inhibition activity
CCCC[C@@H](C)CC(O)C#CC1C(CCCCCCC(=O)O)C(=O)C[C@H]1SCCO (stereo partly drawn) [Compound 7, (11R,17R)-11-deoxy-11-(2-hydroxyethylthio)-17,20-dimethyl-13,14-didehydro-PGE1]	98.4	high growth inhibition activity
COC(=O)COCCCCC1C(=O)C[C@@H](SCCO)C1C#CC(O)C[C@H](C)CCC=C(C)C (stereo partly drawn) [Compound 92, (11R,17R)-3-oxa-11-deoxy-11-(2-hydroxyethylthio)-20-isopropylidene-17-methyl-13,14-didehydro-PGE1 Methyl Ester]	99.3	high growth inhibition activity

Reference: patent US6455584B1, “Prostaglandin E1 derivatives” (Taisho Pharmaceutical Co., Ltd., priority 1999, dated 2002)
